Results reported in patent publication US20210332024A1, “MODULATORS OF PIN1 ACTIVITY AND USES THEREOF” (Yeda Research and Development Co. Ltd., priority 2019, published 2021).

Tests used:
catalytic domain of Pin1 = molecular target: T1, catalytic domain of Pin1 (Homo sapiens, UniProt Q13526); test: Intact protein LC/MS labeling of Pin1; type: binding
T1 construct: The purified catalytic domain of Pin1 was incubated with the fragment library
Description: 993 compounds were transferred to a 384-well plate working copy by combining 0.5 μl of 20 mM stock solution of four or five compounds per well. The catalytic domain of Pin1 (2 μM) in 20 mM Tris, 75 mM NaCl, pH 7.5 was incubated with 200 μM for each compound and moderately shaken for 24 hours at 4° C. The reaction was stopped by the addition of formic acid to 0.4% (v/v) final concentration.
Liquid chromatography/mass spectroscopy runs were performed on an Acquity™ UPLC® H-class system (Waters) in positive ion mode using electrospray ionization (ESI). UPLC separation was performed on a C4 column (300 Å, 1.7 μM, […]). The column was held at 40° C., and the autosampler at 10° C. Mobile solution A was 0.1% formic acid in water and mobile phase B was 0.1% formic acid in acetonitrile. Run flow was 0.4 ml/minute; and a gradient of 20% B for 2 minutes, increasing linearly to 60% B for 3 minutes, holding at 60% B for 1.5 minutes, changing to 0% B in 0.1 minute and holding at 0% for 1.4 minutes, was used. Desolvation temperature was 500° C. with a flow rate of 1000 liters/hour. The capillary voltage was 0.69 kV and cone voltage 46 V. Raw data was processed using OpenLynx™ software and deconvoluted using the MaxEnt tool. Labeling assignment was performed as described in Resnick et al. [J Am Chem Soc 2019, 141:8951-8968].
For the screening 2 μl of each of the 448 click products as 50 μM DMSO stocks were transferred into a 384-well plate working plate. 48 μl of catalytic domain of Pin1 (2 μM) in 20 mM Tris (pH 7.5) with 75 mM NaCl were added and moderately shaken and incubated for 15 minutes at room temperature. The reaction was stopped by the addition of formic acid to 0.4% (v/v) final concentration (20 μl). The mixtures were analyzed by liquid chromatography/mass spectroscopy analogously to the electrophile library incubations described herein. Hits were retrospectively analyzed by liquid chromatography/mass spectroscopy (LC-MS) to ensure reaction completion.
For each measured well, processed peaks were searched to match the mass of unlabeled protein or common small adducts of the unlabeled protein, which were found in the control sample or labeled protein. Labeling percentage for a compound was determined as the labeling of a specific compound divided by the overall detected protein species. Peaks whose mass could not be assigned were discarded from the overall labeling calculation. Data was analyzed using a python script for processing the MaxEnt-deconvoluted spectra. Peaks were normalized from ion counts to percentages, where the highest peak is defined as 100%. The unlabeled protein mass is deduced from a reference well that contains just the protein.
The purified catalytic domain of Pin1 was incubated with the fragment library (2 μM protein, 200 μM compound; 24 hours at 4° C.), followed by intact protein liquid chromatography/mass-spectrometry (LC/MS) to identify and quantify compound labeling. FIG. 1 depicts an example of a compound identified in this manner.
Based on the docking predictions, a total of 26 compounds that featured a range of small or bulky aliphatic, arylic, biphenylic or heterocyclic side-chains (structures depicted in FIG. 5), were synthesized or purchased. In order to identify potent binders, the irreversible labeling efficiency of these second-generation compounds was assessed alongside the original screening hits under more stringent conditions, with a 1:1 ratio of protein to compound (2 μM compound; 1 hour at room temperature).
For further optimization of the lipophilic moiety, an alkyne side chain-bearing analog was prepared, which was derivatized with 448 different azides using copper-catalyzed azide-alkyne cycloaddition (CuAAC).

[1] = Thiol reactivity assay (DTNB); type: physicochemical; settings: 200 μM compound, pH 7.4, 37° C.
Description: 50 μM DTNB (dithionitrobenzoic acid) was incubated with 200 μM TCEP (tris(2-carboxytehyl)phosphine) in 20 mM sodium phosphate buffer (pH 7.4) with 150 mM NaCl, for 5 minutes at room temperature, in order to obtain TNB^2− (thionitrobenzoate dianion). 200 μM compounds were subsequently added to the TNB^2−, followed by immediate UV absorbance measurement at 412 nm (at 37° C.). The UV absorbance was acquired every 15 minutes for 7 hours. The assay was performed in a 384-well plate using a Spark™ 10M plate reader (Tecan). Background absorbance of compounds was subtracted by measuring the absorbance at 412 nm of each compound under the same conditions without DTNB. Compounds were measured in triplicates. The data was fitted to a second order reaction equation such that the rate constant k is the slope of ln([A][B0]/[B][A0]), where [A0] and [B0] are the initial concentrations of the compound (200 μM) and TNB^2− (100 μM) respectively, and [A] and [B] are the remaining concentrations as a function of time, as determined from the spectrometric measurement. Linear regression using Prism® software was performed to fit the rate against the first four hours of measurements.
In order to estimate the influence of the various lipophilic moieties on “warhead” reactivity [Flanagan et al., J Med Chem 2014, 57:10072-10079; Lonsdale et al., J Chem Inf Model 2017, 57:3124-3137; Dahal et al., Medchemcomm 2016, 7:864-872], the thiol reactivity of the top ten binders of the second and third generation was assessed using a high-throughput assay previously applied to the entire fragment library, as described in Resnick et al. [J Am Chem Soc 2019, 141:8951-8968]. In brief, the second-order rate constant was evaluated for a model thiol, which reflects trends in general reactivity towards thiol groups.

[2] = 2 μM Pin1 with 2 μM test compound for 15 minutes at room temperature
[3] = 2 μM Pin1 with 2 μM test compound for 1 hour at room temperature
[4] = 2 μM Pin1 with 200 μM test compound for 24 hours at 4° C.

T1 sequence (Q13526 52-163 limits assumed): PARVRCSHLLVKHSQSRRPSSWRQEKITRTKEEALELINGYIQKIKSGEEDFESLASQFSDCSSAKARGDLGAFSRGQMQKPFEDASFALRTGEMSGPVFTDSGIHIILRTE

For COC(=O)c1ccc(-n2cc(CN(C(=O)CCl)C3CCS(=O)(=O)C3)nn2)cc1 (stereo not drawn) [Compound P1-01-B11], the “Labeling [%]” value (catalytic domain of Pin1; [2]) was 89%, the “Reactivity Log k” value [1] was −6.86 and the Reactivity k [1] was 1.37e-07 M⁻¹ s⁻¹.
With O=C(CCl)N(Cc1cn(-c2ccc(CO)c(F)c2)nn1)C1CCS(=O)(=O)C1 (stereo not drawn) [Compound P1-01-F08] the “Labeling [%]” value (catalytic domain of Pin1; [2]) was 64%, the “Reactivity Log k” value [1] was −5.88 and the Reactivity k [1] was 1.32e-06 M⁻¹ s⁻¹.
For O=C(CCl)N(Cc1cn(-c2cccc(Cl)c2)nn1)C1CCS(=O)(=O)C1 (stereo not drawn) [Compound P1-01-G10], the “Labeling [%]” value (catalytic domain of Pin1; [2]) was 67%, the “Reactivity Log k” value [1] was −6.92 and the Reactivity k [1] was 1.2e-07 M⁻¹ s⁻¹.
In the case of CC(=O)c1ccc(-n2cc(CN(C(=O)CCl)C3CCS(=O)(=O)C3)nn2)cc1 (stereo not drawn) [Compound P1-02-B04], the “Labeling [%]” value (catalytic domain of Pin1; [2]) is reported as 62%, the “Reactivity Log k” value [1] is reported as −5.90 and the Reactivity k [1] is reported as 1.26e-06 M⁻¹ s⁻¹.
In the case of O=C(CCl)N(Cc1cn(-c2cc(Br)ccc2O)nn1)C1CCS(=O)(=O)C1 (stereo not drawn) [Compound P1-02-E11], the “Labeling [%]” value (catalytic domain of Pin1; [2]) is reported as 70%, the “Reactivity Log k” value [1] is reported as −5.98 and the Reactivity k [1] is reported as 1.04e-06 M⁻¹ s⁻¹.
In the case of O=C(CCl)N(Cc1cn(-c2ccc(CO)cc2)nn1)C1CCS(=O)(=O)C1 (stereo not drawn) [Compound P1-02-H08], the “Labeling [%]” value (catalytic domain of Pin1; [2]) is reported as 73%, the “Reactivity Log k” value [1] is reported as −5.88 and the Reactivity k [1] is reported as 1.32e-06 M⁻¹ s⁻¹.
In the case of O=C(CCl)N(Cc1cn(-c2ccc(O)cc2)nn1)C1CCS(=O)(=O)C1 (stereo not drawn) [Compound P1-03-C04], the “Labeling [%]” value (catalytic domain of Pin1; [2]) is reported as 72%, the “Reactivity Log k” value [1] is reported as −6.42 and the Reactivity k [1] is reported as 3.78e-07 M⁻¹ s⁻¹.
With CC(=O)c1cccc(-n2cc(CN(C(=O)CCl)C3CCS(=O)(=O)C3)nn2)c1 (stereo not drawn) [Compound P1-03-D08] the “Labeling [%]” value (catalytic domain of Pin1; [2]) was 54%, the “Reactivity Log k” value [1] was −5.92 and the Reactivity k [1] was 1.2e-06 M⁻¹ s⁻¹.
With NS(=O)(=O)c1ccc(-n2cc(CN(C(=O)CCl)C3CCS(=O)(=O)C3)nn2)cc1 (stereo not drawn) [Compound P1-03-G07] the “Labeling [%]” value (catalytic domain of Pin1; [2]) was 73%, the “Reactivity Log k” value [1] was −5.86 and the Reactivity k [1] was 1.37e-06 M⁻¹ s⁻¹.
In the case of COc1ccc(-n2cc(CN(C(=O)CCl)C3CCS(=O)(=O)C3)nn2)cc1 (stereo not drawn) [Compound P1-04-B02], the “Labeling [%]” value (catalytic domain of Pin1; [2]) is reported as 69%, the “Reactivity Log k” value [1] is reported as −5.76 and the Reactivity k [1] is reported as 1.73e-06 M⁻¹ s⁻¹.
With CCN(C(=O)CCl)C1CCS(=O)(=O)C1 (stereo not drawn) [PCM-0102105] the “Labeling [%]” value (catalytic domain of Pin1; [3]) was 0%, the “Labeling [%]” value (catalytic domain of Pin1; [4]) was 85% and the “Reactivity Log k” value [1] was −6.96. For the same molecule, the Reactivity k [1] was 1.1e-07 M⁻¹ s⁻¹.
In the case of O=C(CCl)NC1CCS(=O)(=O)C1 (stereo not drawn) [PCM-0102138], the “Labeling [%]” value (catalytic domain of Pin1; [3]) is reported as 0%, the “Labeling [%]” value (catalytic domain of Pin1; [4]) is reported as 56% and the “Reactivity Log k” value [1] is reported as −6.92. It also gave a Reactivity k [1] of 1.2e-07 M⁻¹ s⁻¹.
In the case of CC1(NC(=O)CCl)CCS(=O)(=O)C1 (stereo not drawn) [PCM-0102230], the “Labeling [%]” value (catalytic domain of Pin1; [3]) is reported as 0%, the “Labeling [%]” value (catalytic domain of Pin1; [4]) is reported as 87% and the “Reactivity Log k” value [1] is reported as −7.05. It also gave a Reactivity k [1] of 8.87e-08 M⁻¹ s⁻¹.
With O=C(CCl)N(C1CCCC1)C1CCS(=O)(=O)C1 (stereo not drawn) [PCM-0102313] the “Labeling [%]” value (catalytic domain of Pin1; [4]) was 83%, the “Reactivity Log k” value [1] was −6.97 and the Reactivity k [1] was 1.07e-07 M⁻¹ s⁻¹.
For O=C(CCl)N(c1ccccc1)C1C=CS(=O)(=O)C1 (stereo not drawn) [PCM-0102372], the “Labeling [%]” value (catalytic domain of Pin1; [4]) was 100%.
With Cc1ccc(N(C(=O)CCl)C2C=CS(=O)(=O)C2)cc1 (stereo not drawn) [PCM-0102539] the “Labeling [%]” value (catalytic domain of Pin1; [4]) was 100%.
With Cc1cccc(N(C(=O)CCl)C2C=CS(=O)(=O)C2)c1 (stereo not drawn) [PCM-0102579] the “Labeling [%]” value (catalytic domain of Pin1; [4]) was 100%.
